Consider 12 compounds from patent US6677368B2, “4-aryl substituted indolinones” (Sugen, Inc., priority 2000, dated 2004).

Where only a bound is given, the exact number is not on record here.

Format in all cases: biochemical
One test deals with T1, MET (Homo sapiens, UniProt P08581).
T1 construct: Purified GST fusion protein containing the Met kinase domain, SUGEN, Inc
In words: MET transphosphorylation assay. The conditions noted are these: GST fusion protein containing the Met kinase domain, poly(glu-tyr) substrate. The protocol: MET TRANSPHOSPHORYLATION ASSAY
This assay is used to measure phosphotyrosine levels on a poly(glutamic acid:tyrosine, 4:1) substrate as a means for identifying agonists/antagonists of met transphosphorylation of the substrate.
1. Corning 96-well ELISA plates, Corning Catalog #25805-96.
2. Poly(glu-tyr), 4:1, Sigma, Cat. No; P 0275.
5. Blocking Buffer: Dissolve 25 g Bovine Serum Albumin, Sigma Cat. No A-7888, in 500 ml PBS, filter through a […] filter.
6. Purified GST fusion protein containing the Met kinase domain, SUGEN, Inc.
8. 10% aqueous (MilliQue H2O) DMSO.
9. 10 mM aqueous (dH2O) Adenosine-5′-triphosphate, Sigma Cat. No. A-5394.
10. 2×Kinase Dilution Buffer: for 100 ml, mix 10 mL 1M HEPES at pH 7.5 with 0.4 mL 5% BSA/PBS, 0.2 mL 0.1 M sodium orthovanadate and 1 mL 5M sodium chloride in 88.4 mL dH2O.
11. 4×ATP Reaction Mixture: for 10 mL, mix 0.4 mL 1 M manganese chloride and 0.02 mL 0.1 M ATP in 9.56 mL dH2O.
12. 4×Negative Controls Mixture: for 10 mL, mix 0.4 mL 1 M manganese chloride in 9.6 mL dH2O.
13. NUNC 96-well V bottom polypropylene plates, Applied Scientific Catalog #S-72092
15. Antibody Dilution Buffer: for 100 mL, mix 10 mL 5% BSA/PBS, 0.5 mL 5% Carnation® Instant Milk in PBS and 0.1 mL 0.1 M sodium orthovanadate in 88.4 mL TBST.
16. Rabbit polyclonal antophosphotyrosine antibody, SUGEN, Inc.
17. Goat anti-rabbit horseradish peroxidase conjugated antibody, Biosource, Inc.
18. ABTS Solution: for 1 L, mix 19.21 g citric acid, 35.49 g Na2HPO4 and 500 mg ABTS with sufficient dH2O to make 1 L.
19. ABTS/H2O2: mix 15 mL ABST solution with 2μL H2O2 five minutes before use.
1. Coat ELISA plates with 2 μg Poly(Glu-Tyr) in 100 μL PBS, hold overnight at 4° C.
2. Block plate with 150 μL of 5% BSA/PBS for 60 min.
3. Wash plate twice with PBS then once with 50 mM Hepes buffer pH 7.4.
4. Add 50 μl of the diluted kinase to all wells. (Purified kinase is diluted with Kinase Dilution Buffer. Final concentration should be 10 ng/well.)
5. Add 25 μL of the test compound (in 4% DMSO) or DMSO alone (4% in dH2O) for controls to plate.
6. Incubate the kinase/compound mixture for 15 minutes.
7. Add 25 μL of 40 mM MnCl2 to the negative control wells.
8. Add 25 μL ATP/MnCl2 mixture to the all other wells (except the negative controls). Incubate for 5 min.
9. Add 25 μL 500 mM EDTA to stop reaction.
10. Wash plate 3× with TBST.
11. Add 100 μL rabbit polyclonal anti-Ptyr diluted 1:10,000 in Antibody Dilution Buffer to each well. Incubate, with shaking, at room temperature for one hour.
12. Wash plate 3× with TBST.
13. Dilute Biosource HRP conjugated anti-rabbit antibody 1:6,000 in Antibody Dilution buffer. Add 100 μL per well and incubate at room temperature, with shaking, for one hour.
14. Wash plate 1× with PBS.
15. Add 100 μl of ABTS/H2O2 solution to each well.
16. If necessary, stop the development reaction with the addition of 100 μl of 0.2M HCl per well.
17. Read plate on Dynatech MR7000 ELISA reader with the test filter at 410 nM and the reference filter at 630 nM.

A further test has as its target EGFR (Homo sapiens, UniProt P00533). In words: EGFR kinase inhibition.
The target of another test is T2, SRC (Homo sapiens, UniProt P12931).
T2 construct: purchased UBI 14-117
T2 sequence (P12931 whole entry): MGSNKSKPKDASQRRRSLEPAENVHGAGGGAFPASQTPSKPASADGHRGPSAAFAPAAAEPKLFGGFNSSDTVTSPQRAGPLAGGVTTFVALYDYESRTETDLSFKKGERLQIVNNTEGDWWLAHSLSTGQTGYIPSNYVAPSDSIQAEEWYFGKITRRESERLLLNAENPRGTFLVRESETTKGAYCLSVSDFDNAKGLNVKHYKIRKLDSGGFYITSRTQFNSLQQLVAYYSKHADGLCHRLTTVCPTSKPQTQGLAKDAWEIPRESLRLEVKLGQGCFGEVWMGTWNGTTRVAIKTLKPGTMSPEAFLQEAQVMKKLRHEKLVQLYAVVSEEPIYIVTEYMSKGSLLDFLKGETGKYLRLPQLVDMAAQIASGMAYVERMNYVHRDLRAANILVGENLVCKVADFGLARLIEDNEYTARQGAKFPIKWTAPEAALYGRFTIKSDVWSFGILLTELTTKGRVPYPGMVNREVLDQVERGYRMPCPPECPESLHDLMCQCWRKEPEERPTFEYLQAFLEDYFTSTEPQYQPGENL
In words: Src transphosphorylation assay. The conditions noted are these: recombinant human Src, poly(Glu-Tyr) substrate. The protocol: Src Transphosphorylation Assay
This assay is used to screen for inhibitors of the tyrosine kinase Src.
1. Coating buffer: PBS containing sodium azide (0.2 mg/ml).
3. Wash buffer: PBS containing 0.05% v/v Tween 20 (PBS-TWEEN)
5. ATP (40 [M)+MgCl2 (80 mM) in distilled water.
6. MgCl2 (80 mM) in distilled water (for no ATP blanks).
7. Test compounds, 10 mM in DMSO.
8. Assay Buffer: 100 mM HEPES, pH 7.4, containing 2 mM DTT, 0.2 mM sodium orthovanadate and 0.2 mgs/ml BSA.
9. Partially purified recombinant human Src (UBI (14-117)
10. Anti-phosphotyrosine (SUGEN rabbit polyclonal anti-PY).
11. HRP-linked goat anti-rabbit Ig (Biosource International #6430)
12. HRP substrate ABTS or Pierce Peroxidase substrate.
13. Corning ELISA plates.
1. Coat plates with 100 μl of 20 μg/ml poly(Glu-Tyr) (Sigma Cat. No.P0275) containing 0.01% sodium azide. Hold overnight at 4° C.
2. Block with 1% BSA at 100 μl/well for one hour at room temperature.
3. Plate test compounds (10 mM in DMSO) at 2 ul/well on a Costar plate ready for dilution with dH2O and plating to reaction plates.
4. Dilute Src kinase 1:10,000 in Reaction Buffer, for 5 plates prepare 25 ml as follows: 2.5 mls 1M HEPES pH7.4 (stored sterile at 4° C.), 21.85 ml distilled water, 0.1 ml 5% BSA, 0.5 ml 10 mM sodium orthovanadate (stored sterile at 4° C.), 50 μl 1.0M DTT (stored frozen at […]), and 2.5 μl Src Kinase (stored frozen at −80° C.).
5. Add 48 μl of distilled water to the 2 ∥l of each compound in the dilution plate then add 25 μl/well of this to the reaction plate.
6. Add 50 μl of […] to each reaction buffer well and then 25 μl ATP-MgCl2/well (MgCl2 only to no ATP blanks). Incubate at room temperature for 15 minutes on plate shaker. Stop reaction by adding 25 μl of 0.5M EDTA to each well.
7. Wash 4× with PBS-TWEEN.
8. […] Incubate with continuous shaking at room temperature for one hour.
9. Wash plates 4× with PBS-TWEEN.
10. Add 100 μl HPP-linked Ig (1:5,000) in PBS-TWEEN containing 0.5% BSA, 0.025% Non-fat milk powder, 100 μM sodium orthovanadate. Incubate with shaking at room temperature for one hour.
11. Wash plates 4× with PBS-TWEEN and then once with PBS.
12. Develop plate using ABTS or other peroxidase substrate.

For a further test, the target named is FGFR3 (Homo sapiens, UniProt P22607). In words: FGFR3 kinase inhibition.
Sequence of FGFR3 (P22607 23-806, species assumed): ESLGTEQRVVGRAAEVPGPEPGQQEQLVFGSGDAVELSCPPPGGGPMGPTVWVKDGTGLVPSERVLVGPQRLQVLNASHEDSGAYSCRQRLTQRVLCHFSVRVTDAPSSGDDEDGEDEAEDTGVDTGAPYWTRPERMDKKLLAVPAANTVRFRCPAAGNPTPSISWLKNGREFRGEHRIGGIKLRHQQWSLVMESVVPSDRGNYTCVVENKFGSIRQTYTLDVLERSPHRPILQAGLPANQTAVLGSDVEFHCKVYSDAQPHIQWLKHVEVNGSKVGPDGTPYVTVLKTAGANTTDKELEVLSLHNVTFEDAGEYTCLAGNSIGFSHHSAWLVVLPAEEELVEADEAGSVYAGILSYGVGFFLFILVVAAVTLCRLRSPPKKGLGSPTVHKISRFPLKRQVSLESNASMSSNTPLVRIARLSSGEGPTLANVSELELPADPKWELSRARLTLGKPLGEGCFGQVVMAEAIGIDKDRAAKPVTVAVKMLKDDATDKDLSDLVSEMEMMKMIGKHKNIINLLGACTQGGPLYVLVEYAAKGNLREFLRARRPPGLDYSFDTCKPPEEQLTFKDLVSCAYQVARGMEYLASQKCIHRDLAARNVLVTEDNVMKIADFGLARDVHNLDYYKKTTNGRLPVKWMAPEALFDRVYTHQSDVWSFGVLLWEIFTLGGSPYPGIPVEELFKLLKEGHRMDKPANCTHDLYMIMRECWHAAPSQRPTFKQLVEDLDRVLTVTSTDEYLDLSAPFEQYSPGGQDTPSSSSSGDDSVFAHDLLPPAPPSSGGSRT

T1 sequence (P08581 1078-1345 limits assumed): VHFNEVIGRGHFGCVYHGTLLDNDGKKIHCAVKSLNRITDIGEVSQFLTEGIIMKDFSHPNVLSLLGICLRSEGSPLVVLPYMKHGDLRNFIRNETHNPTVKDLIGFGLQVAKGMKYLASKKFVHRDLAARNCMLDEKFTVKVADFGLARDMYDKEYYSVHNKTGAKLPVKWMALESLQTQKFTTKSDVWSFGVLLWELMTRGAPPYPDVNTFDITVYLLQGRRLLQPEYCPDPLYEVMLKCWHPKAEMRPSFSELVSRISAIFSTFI
Sequence of EGFR (P00533 25-1210, species assumed): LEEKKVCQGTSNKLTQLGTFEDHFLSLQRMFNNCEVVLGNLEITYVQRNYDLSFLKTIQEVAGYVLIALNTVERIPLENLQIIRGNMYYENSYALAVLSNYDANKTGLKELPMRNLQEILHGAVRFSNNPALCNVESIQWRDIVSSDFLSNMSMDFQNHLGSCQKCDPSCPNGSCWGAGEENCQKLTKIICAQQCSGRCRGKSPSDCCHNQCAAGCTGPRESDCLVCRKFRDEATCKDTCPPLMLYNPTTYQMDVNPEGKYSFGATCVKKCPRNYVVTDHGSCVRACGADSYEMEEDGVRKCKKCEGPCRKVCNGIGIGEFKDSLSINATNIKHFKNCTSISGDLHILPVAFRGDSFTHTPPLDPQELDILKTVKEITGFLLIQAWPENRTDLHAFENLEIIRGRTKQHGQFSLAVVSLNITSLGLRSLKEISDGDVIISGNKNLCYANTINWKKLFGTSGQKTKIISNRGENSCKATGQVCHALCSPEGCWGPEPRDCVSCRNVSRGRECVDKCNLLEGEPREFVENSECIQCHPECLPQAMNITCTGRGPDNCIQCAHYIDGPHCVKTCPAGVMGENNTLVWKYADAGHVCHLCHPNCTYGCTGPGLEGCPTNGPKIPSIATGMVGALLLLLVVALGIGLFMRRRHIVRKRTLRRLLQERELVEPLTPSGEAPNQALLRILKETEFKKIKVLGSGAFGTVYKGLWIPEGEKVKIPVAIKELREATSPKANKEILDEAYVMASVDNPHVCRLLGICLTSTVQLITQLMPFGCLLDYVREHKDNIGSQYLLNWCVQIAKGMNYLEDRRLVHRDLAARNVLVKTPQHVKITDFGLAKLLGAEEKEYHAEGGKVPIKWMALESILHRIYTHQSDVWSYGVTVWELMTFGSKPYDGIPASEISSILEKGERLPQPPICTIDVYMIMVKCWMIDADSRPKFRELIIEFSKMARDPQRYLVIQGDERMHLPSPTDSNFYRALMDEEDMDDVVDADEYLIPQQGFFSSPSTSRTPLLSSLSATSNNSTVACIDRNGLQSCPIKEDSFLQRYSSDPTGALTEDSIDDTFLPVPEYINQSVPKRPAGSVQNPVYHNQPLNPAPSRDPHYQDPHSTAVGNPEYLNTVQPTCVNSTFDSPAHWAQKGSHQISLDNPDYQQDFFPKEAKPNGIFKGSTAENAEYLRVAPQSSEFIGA

For `CCN(CC)CCNC(=O)c1c(C)[nH]c(/C=C2\C(=O)Nc3cccc(-c4cccc(Br)c4)c32)c1C` [Example 63, 5-[4-(3-Bromo-phenyl)-2-oxo-1,2-dihydro-indol-3-ylidenemethyl]-2,4-dimethyl-1H-pyrrole-3-carboxylic Acid (2-Diethylamino-ethyl)-amide], the IC50 (commonly the concentration that inhibits the measured activity by half) on MET was 43 nM; against EGFR, 15 µM; at SRC, 1.14 µM; against FGFR3 it was 94 nM.
`Cc1cc(C(=O)N2C[C@@H](C)N[C@@H](C)C2)c(/C=C2\C(=O)Nc3cccc(-c4ccc(Cl)cc4)c32)[nH]1` [Example 27]: the values for the half-maximal inhibitory concentration (IC50) at MET, at SRC and against FGFR3 were 150 nM, 13.9 µM and 610 nM, respectively.
The matching figures for `CCN(CC)CCNC(=O)c1c[nH]c(/C=C2\C(=O)Nc3cccc(-c4ccc(Br)cc4)c32)c1C` [Example 61, 5-[4-(4-Bromo-phenyl)-2-oxo-1,2-dihydro-indol-3-ylidenemethyl]-4-methyl-1H-pyrrole-3-carboxylic Acid (2-Diethylamino-ethyl)-amide]: 110 nM, 1.72 µM and less than 9.1 nM.
On to `Cc1cc(C(=O)NCCN2CCCC2)c(/C=C2\C(=O)Nc3cccc(-c4ccc(Br)cc4)c32)[nH]1` [Example 58, 2-[4-(4-Bromo-phenyl)-2-oxo-1,2-dihydro-indol-3-ylidenemethyl]-5-methyl-1H-pyrrole-3-carboxylic Acid (2-Pyrrolidin-1-yl-ethyl)-amide], for which the IC50 was 73 nM at MET, 4.81 µM on SRC and 220 nM against FGFR3.
For `Cc1[nH]c(/C=C2\C(=O)Nc3cccc(-c4ccc(Br)cc4)c32)c(C)c1C(=O)N1C[C@@H](C)N[C@@H](C)C1` [Example 57, 4-(4-Bromo-phenyl)-3-[4-[(cis)-3,5-dimethyl-piperazine-1-carbonyl)-3,5-dimethyl-1H-pyrrol-2-ylmethylene]-1,3-dihydro-indol-2-one], the IC50 on MET turned out to be 420 nM; on SRC, 4.74 µM; at FGFR3 it was 87 nM.
For the compound `Cc1cc(C(=O)N2CC[C@H](N(C)C)C2)c(/C=C2\C(=O)Nc3cccc(-c4cccc(Cl)c4)c32)[nH]1` [Example 32, 4-(3-Chloro-phenyl)-3-[3-((S)-3-dimethylamino-pyrrolidine-1-carbonyl)-5-methyl-1H-pyrrol-2-ylmethylene]-1,3-dihydro-indol-2-one], the results for the concentration for half-maximal inhibition (IC50) on MET, at SRC and against FGFR3 were 120 nM, 5.37 µM and 1770 nM, respectively.
Consider `COc1cccc(-c2cccc3c2/C(=C/c2[nH]c(C)c(C(=O)NCCn4ccnn4)c2C)C(=O)N3)c1` [Example 48, 5-[4-(3-Methoxy-phenyl)-2-oxo-1,2-dihydro-indol-3-ylidenemethyl]-2,4-dimethyl-1H-pyrrole-3-carboxylic Acid (2-[1,2,3]Triazol-1-yl-ethyl)-amide], for which the values for the half-maximal inhibitory concentration (IC50) against MET, at SRC and against FGFR3 were 1060 nM, 3.8 µM and 190 nM, respectively.
Take `Cc1cc(C(=O)N2CC[C@@H](N(C)C)C2)c(/C=C2\C(=O)Nc3cccc(-c4ccc(Cl)cc4)c32)[nH]1` [Example 25, 4-(4-Chloro-phenyl)-3-[3-((R)-3-dimethylamino-pyrrolidine-1-carbonyl)-5-methyl-1H-pyrrol-2-ylmethylene]-1,3-dihydro-indol-2-one]: the IC50 on MET came out at 110 nM; at SRC it was 9.86 µM; against FGFR3 it was 340 nM.
For `Cc1[nH]c(/C=C2\C(=O)Nc3cccc(-c4cccc(F)c4)c32)c(C)c1C(=O)NCCn1ccnn1` [Example 15, 5-[4-(3-Fluoro-phenyl)-2-oxo-1,2-dihydro-indol-3-ylidenemethyl]-2,4-dimethyl-1H-pyrrole-3-carboxylic Acid (2-[1,2,3]Triazol-1-yl-ethyl)-amide], the half-inhibitory concentration (IC50) at MET amounted to 370 nM; on SRC it was 2.27 µM; against FGFR3, 72 nM.
Take `COc1ccc(-c2cccc3c2/C(=C/c2[nH]c(C)c(C(=O)N4C[C@@H](C)N[C@@H](C)C4)c2C)C(=O)N3)cc1` [Example 40, 3-[4-((cis)-3,5-Dimethyl-piperazine-1-carbonyl)-3,5-dimethyl-1H-pyrrol-2-ylmethylene]-4-(4-methoxy-phenyl)-1,3-dihydro-indol-2-one]: the figures for the half-maximal inhibitory concentration (IC50) against MET, at SRC and against FGFR3 were 270 nM, 6.57 µM and 380 nM, respectively.
Consider `Cc1[nH]c(/C=C2\C(=O)Nc3cccc(-c4ccc(F)cc4)c32)c(C)c1C(=O)NCCN1CCCC1` [Example 6, 5-[4-(4-Fluoro-phenyl)-2-oxo-1,2-dihydro-indol-3-ylidenemethyl]-2,4-dimethyl-1H-pyrrole-3-carboxylic Acid (2-Pyrrolidin-1-yl-ethyl)-amide], for which the half-inhibitory concentration (IC50) was 73 nM at MET, 16.2 µM against EGFR and 4.93 µM on SRC.
With `Cc1[nH]c(/C=C2\C(=O)Nc3cccc(-c4ccc(Cl)cc4)c32)c(C)c1C(=O)N1CCN(C)CC1` [Example 20, 4-(4-Chloro-phenyl)-3-[3,5-dimethyl-4-(4-methyl-piperazine-1-carbonyl)-1H-pyrrol-2-ylmethylene]-1,3-dihydro-indol-2-one], the values for the concentration for half-maximal inhibition (IC50) at MET, on SRC and at FGFR3 were 520 nM, 10.4 µM and 1290 nM, respectively.
